Columns and labels:
Assay type in all cases: in vivo
CD-1 mice [1] = assay: hEPO expression in serum after IV lipid nanoparticles with hEPO mRNA, CD-1 mice; conditions: LNP with DSPC, cholesterol, Compound I; for Mean 6 hr hEPO Concentration: serum 6 hours after injection
Procedure: To assess potency of expression and metabolic stability of lipids of the disclosure, hepatocyte protein expression (hEPO) was measured following administration to mice of a nanoparticle of the disclosure.
(§1) Lipid nanoparticles including DSPC as a phospholipid, cholesterol as a structural lipid, Compound I as a PEG lipid, an ionizable amino lipid of Formula (II), and an mRNA encoding hEPO were intravenously administered to CD-1 mice. The concentration of hEPO in serum was tested at 6 hours after injection.

mice [2] = assay: Luciferase expression, total whole body flux, mice
Procedure: (§2) To further assess potency of expression and metabolic stability of lipids of the disclosure, expression of luciferase was measured following administration to rodents of a nanoparticle of the disclosure comprising an mRNA containing luciferase.
Lipid nanoparticles including DSPC as a phospholipid, cholesterol as a structural lipid, Compound I as a PEG lipid, an ionizable amino lipid of Formula (II), and an mRNA encoding luciferase were intravenously administered to CD-1 mice and Sprague Dawley rats. […]

mice [3] = assay: Residual lipid levels in the liver at 24 h, mice (luciferase mRNA LNPs)
CD-1 mice [4] = assay: Parent lipid remaining in liver at 24 h, CD-1 mice (hEPO mRNA LNPs); conditions: for Approx. Percent Total Dose of Parent Lipid Remaining at 24 h: calculation assumes a 25 g mouse with a 1.5 g liver
Sprague Dawley rats [5] = assay: NPI-Luciferase expression, ex vivo liver bioluminescence, Sprague Dawley rats; conditions: rat, IV
Procedure: as §2
as §1, with “luciferase” for “hEPO”, “mice and Sprague Dawley rats.” for “mice.”, “level” for “concentration”, “expression” for “hEPO in serum”, “tested via bioluminescence in the liver ex vivo” for “tested”

CD-1 mice [6] = assay: NPI-Luciferase expression, ex vivo liver bioluminescence, CD-1 mice; conditions: mouse, IV
Procedure: as §2
as §1, with “luciferase” for “hEPO”, “mice and Sprague Dawley rats.” for “mice.”, “level” for “concentration”, “expression” for “hEPO in serum”, “tested via bioluminescence in the liver ex vivo” for “tested”

Sprague Dawley rats [7] = assay: Parent lipid remaining in liver tissue at 24 h, rats; conditions: rat
Sprague Dawley rats [8] = assay: hEPO expression in serum after IV lipid nanoparticles with hEPO mRNA, Sprague Dawley rats; conditions: serum 6 hours after injection
Procedure: To further assess potency of expression and metabolic stability of lipids of the disclosure, hepatocyte protein expression (hEPO) was measured following administration to rats of a nanoparticle of the disclosure.
as §1, with “Sprague Dawley rats.” for “CD-1 mice.”

SMILES	Parent Lipid Remaining (nmol/g liver tissue) at 24 h (CD-1 mice [4])	Approx. Percent Total Dose of Parent Lipid Remaining at 24 h (CD-1 mice [4])	Approx. Percent Total Dose of Parent Lipid Remaining at 24 h (Sprague Dawley rats [7])	hEPO AUC (CD-1 mice [1])	Mean 6 hr hEPO Concentration (CD-1 mice [1])	Total Whole Body Flux @ 6 h (mice [2])	% Lipid Remaining @ 24 h (mice [3])	Mean 6 h ex vivo Liver NPI-Luciferase Total Flux (Sprague Dawley rats [5])	Mean 6 h ex vivo Liver NPI-Luciferase Total Flux (CD-1 mice [6])	Mean 6 hr hEPO Concentration (Sprague Dawley rats [8])
CCCCCCCCC(CCCCCCCC)OC(=O)CCCCCCCN(CCO)CCCCCCCC(=O)OCCC(CCCC)CCCCCC (centres unmarked) [Compound 7]	0.3 ± 0.2 nmol/g liver tissue	0.2%		2.13E+07	1355957 mIU/mL	6.09E+10 p/s	<1%			
CCCCCCCCC(CCCCCCCC)OC(=O)CCCCCCCN(CCO)CCCCCCCC(=O)OCC(CCC)CCCCCCC (centres unmarked) [Compound 8]						3.82E+10 p/s	<1%			
CCCCCCCCC(CCCCCCCC)OC(=O)CCCCCCCN(CCCCCCCC(=O)OCC(CCC)CCCCCCC)CCCNc1c(NC)c(=O)c1=O (centres unmarked) [Compound 9]						1.82E+10 p/s	68 ± 10%			
CCCCCCCCC(CCCCCCCC)OC(=O)CCCCCCCN(CCCCCCCC(=O)OCC(CCCC)CCCCCCC)CCCNc1c(NC)c(=O)c1=O (centres unmarked) [Compound 10]						4.6E+09 p/s	67 ± 7%			
CCCCCCCCC(CCCCCCCC)OC(=O)CCCCCCCN(CCCCCCCC(=O)OCC(CC)CCCCCCC)CCCNc1c(NC)c(=O)c1=O (centres unmarked) [Compound 11]						1.04E+10 p/s	23 ± 6%			
CCCCCCCCC(CCCCCCCC)OC(=O)CCCCCCCN(CCO)CCCCCCCC(=O)OCCC(CCCCCC)C(C)C (centres unmarked) [Compound 12]						2.39E+10 p/s	<1%			
CCCCCCCCC(CCCCCCCC)OC(=O)CCCCCCCN(CCO)CCCCCCCC(=O)OCCC(CCC)CCCCCC (centres unmarked) [Compound 13]						3.77E+10 p/s	<1%			
CCCCCCCCC(CCCCCCCC)COC(=O)CCCCCN(CCCCCCCC(=O)OC(CC)CCCCCCCC)CCCNc1c(NC)c(=O)c1=O (centres unmarked) [Compound 14]	56 ± 6 nmol/g liver tissue	58%	58%	4.53E+07	2952339 mIU/mL			1567000000 photons/second	465200000 photons/second	
CCCCCCCCC(CCCCCCCC)OC(=O)CCCCCCCN(CCO)CCCCCCCC(=O)OCCC(CCCCC)CCCCC [Compound 24]	3 ± 1 nmol/g liver tissue	2%	2%	1.93E+07	1160499 mIU/mL			2020000000 photons/second	240400000 photons/second	
CCCCC(CCCC)CCOC(=O)CCCCCCCN(CCCCCCCC(=O)OCCC(CCC)CCC)CCCNc1c(NC)c(=O)c1=O [Compound 52]	<1 nmol/g liver tissue	<1%		3.82E+06	564670 mIU/mL					
CCCC(CCC)CCOC(=O)CCCCCCCN(CCCCCCCC(=O)OCCC(CCC)CCC)CCCNc1c(NC)c(=O)c1=O [Compound 53]	<1 nmol/g liver tissue	<1%		6.63E+03	130324 mIU/mL					

Continued, in another order:

Parent Lipid Remaining (nmol/g liver tissue) at 24 h (CD-1 mice [4])	Approx. Percent Total Dose of Parent Lipid Remaining at 24 h (CD-1 mice [4])	Approx. Percent Total Dose of Parent Lipid Remaining at 24 h (Sprague Dawley rats [7])	SMILES	hEPO AUC (CD-1 mice [1])	Mean 6 hr hEPO Concentration (CD-1 mice [1])	Total Whole Body Flux @ 6 h (mice [2])	% Lipid Remaining @ 24 h (mice [3])	Mean 6 h ex vivo Liver NPI-Luciferase Total Flux (Sprague Dawley rats [5])	Mean 6 h ex vivo Liver NPI-Luciferase Total Flux (CD-1 mice [6])	Mean 6 hr hEPO Concentration (Sprague Dawley rats [8])
40 ± 7 nmol/g liver tissue	41%	41%	CCCCCCCCC(CCCCCCCC)OC(=O)CCCCCCCN(CCCCCCCC(=O)OCCC(CCC)CCCCCC)CCCNc1c(NC)c(=O)c1=O (centres unmarked) [Compound 18]	3.17E+07	2158772 mIU/mL			1473333333 photons/second	372800000 photons/second	
4 ± 0.6 nmol/g liver tissue	4%		CCCCCC(CCCCC)CCOC(=O)CCCCCCCN(CCCCCCCC(=O)OCCC(CCC)CCC)CCCNc1c(NC)c(=O)c1=O [Compound 51]	1.31E+07	1556494 mIU/mL					
3 ± 0.6 nmol/g liver tissue	3%		CCCCC(CCCC)CCOC(=O)CCCCCCCN(CCCCCCCC(=O)OCCC(CCCC)CCCC)CCCNc1c(NC)c(=O)c1=O [Compound 55]	1.99E+07	1332073 mIU/mL					161760 mIU/mL
12 ± 1 nmol/g liver tissue	13%		CCCCCC(CCCCC)CCOC(=O)CCCCCCCN(CCCCCCCC(=O)OC(CCCCC)CCCCC)CCCNc1c(NC)c(=O)c1=O [Compound 57]	1.60E+07	1238977 mIU/mL					
15 ± 2 nmol/g liver tissue	15%		CCCCCC(CCCCC)CCOC(=O)CCCCCCCN(CCCCCCCC(=O)OC(CCCC)CCCC)CCCNc1c(NC)c(=O)c1=O [Compound 58]	2.33E+07	1347883 mIU/mL					
8.5 ± 0.6 nmol/g liver tissue	9 ± 0.8%		CCCCCCC(CCCCCC)OC(=O)CCCCCCCN(CCCCCCCC(=O)OCCC(CCCC)CCCC)CCCNc1c(NC)c(=O)c1=O [Compound 60]	1.42E+07	1031398 mIU/mL					
5.1 ± 0.8 nmol/g liver tissue	6 ± 0.3%		CCCCCC(CCCCC)OC(=O)CCCCCCCN(CCCCCCCC(=O)OCCC(CCCC)CCCC)CCCNc1c(NC)c(=O)c1=O [Compound 61]	1.44E+07	1020791 mIU/mL					362569 mIU/mL
1.8 ± 0.6 nmol/g liver tissue	2 ± 0.9%		CCCCC(CCCC)CCOC(=O)CCCCCCCN(CCCCCCCC(=O)OC(CCCC)CCCC)CCCNc1c(NC)c(=O)c1=O [Compound 62]	6.51E+06	475498 mIU/mL					
8.9 ± 2.8 nmol/g liver tissue	9 ± 3%^		CCCCCCCC(CCCCCCC)OC(=O)CCCCCCCN(CCCCCCCC(=O)OCCC(CCC)CCC)CCCNc1c(NC)c(=O)c1=O [Compound 63]	9.66E+06	692334 mIU/mL					
0.9 ± 0.3 nmol/g liver tissue	0.9 ± 0.06%		CCCCCC(CCCCC)OC(=O)CCCCCCCN(CCCCCCCC(=O)OCCC(CCC)CCC)CCCNc1c(NC)c(=O)c1=O [Compound 65]	1.02E+07	734054 mIU/mL					
0.1 ± 0.03 nmol/g liver tissue	<1%		CCCCC(CCCC)OC(=O)CCCCCCCN(CCCCCCCC(=O)OCCC(CCC)CCC)CCCNc1c(NC)c(=O)c1=O [Compound 66]	2.10E+05	17801 mIU/mL					
